The source of these data is patent US4087603A, “Antifungal antibiotics” (priority 1976, dated 1978).

The nature of data set [1]: Solubility. It counts as physicochemical.
The test system of data set [2] is fungi. The following applies: cited from earlier work.
The subject of data set [3] is systemic fungal infections. The following applies: cited from earlier work.
The test system of data set [4] is C. albicans A-26. Description: In vivo antifungal activity in X-irradiated mice infected intravenously with C. albicans A-26. The following applies: Candida albicans, A26, light or radiation study, sc, C. albicans A-26 i.v. infection, sub-lethal X-irradiation 24 hours prior, read-out: average effective dose, ED50. The procedure:
As previously mentioned, the compounds of this invention are effective systemic antifungal agents. When administered orally or parenterally, the antifungal compounds of this invention are effective in combatting systemic fungal infections for example, Candida albicans systemic infections. […] The tests in mice were carried out in the following manner. Two groups of mice, one a control group, were exposed to a sub-lethal dose of X-irradiation 24 hours prior to infection with C. albicans A-26. The mice were infected by intravenous administration of C. albicans cells.

A short description of data set [5]: Acute toxicity in mice. In kind it is in vivo.

Structures are written as SMILES.

Take `Nc1ncnc2c1ncn2[C@@H]1O[C@H](CC(N)CC[C@H](N)C(=O)O)[C@@H](O)[C@H]1O` (stereo partly drawn) [A-9145, 5'-deoxy-5'-(1,4-diamino-4-carboxybutyl)adenosine]: in data set [1], the solubility in methanol result is given as “partially soluble”. In addition, in data set [2], the “activity in vitro (known antibiotic)” value is “active both in vitro and in vivo”. Further, the “activity in vivo (known antibiotic)” value in data set [3] was “active both in vitro and in vivo”.
Regarding `Nc1ncnc2c1ncn2[C@@H]1O[C@H](CC2CCC(N)C(=O)N2)[C@@H](O)[C@H]1O` (stereo partly drawn) [compound I, 5'-deoxy-5'-(3-aminopiperidin-2-one-6-yl)adenosine], in data set [4], the ED50 (usually the dose at which the effect has come halfway, by size or by number of responders) stood at 38 mg/kg. In addition, in data set [5] (mice, dose of about 1000 mg./kg.), the acute toxicity result is given as “no acute toxicity was observed”. The solubility in acetone result in data set [1] (acetone) is “sparingly soluble”. Moreover, in data set [1] (ethanol), the solubility in ethanol result is reported as “sparingly soluble”. Moreover, in data set [1], the solubility in methanol entry is given as “sparingly soluble” and the solubility in water entry was “highly soluble”.
Take `NC(=O)NC(CCC(N)C[C@H]1O[C@@H](n2cnc3c(N)ncnc32)[C@H](O)[C@@H]1O)C(N)=O` (stereo partly drawn) [compound II, 5'-deoxy-5'-(1-amino-4-ureido-4-carboxyamidobutyl)adenosine]: the ED50 in data set [4] was about 21 mg/kg. Further, in data set [5] (dose of 400 mg./kg.), the acute toxicity result is listed as “no acute toxicity was observed”. In addition, the solubility in water entry in data set [1] was “highly soluble”.
